The values that follow come from US10441560B2, “Compositions and methods for treating non-alcoholic steatohepatitis” (priority 2013, dated 2019).

In one data set the test system is CYP450. As to conditions: at free concentrations observed in humans; previous studies; cited from earlier work.
A short description of data set [1]: Lipid lowering in animal studies. Type of data set: in vivo. As to conditions: rats, hamsters and rabbits.
For a further data set, the system named is arteries. Description: Preservation of elasticity of arteries. As to conditions: rabbits. Type of data set: in vivo.
Data set [2] has as its system diet-induced hepatic steatosis model. The data set is described as follows: Mouse diet-induced hepatic steatosis model. Type of data set: in vivo. As to conditions: repeat oral administration at ≥0.1 mg/g.
Data set [3] concerns galactosamine-induced steatohepatitis mouse model. Description: Galactosamine-induced steatohepatitis mouse model. Type of data set: in vivo. As to conditions: oral administration at 1000 mg/kg.
Data set [4] deals with methionine-choline deficient diet rat model of nonalcoholic steatohepatitis. Description: Methionine-choline deficient diet rat model of nonalcoholic steatohepatitis. The class given is in vivo. As to conditions: repeat oral administration at 1000 mg/kg.
Data set [5] relates to central nervous, autonomic nervous, respiratory and cardiovascular systems. Description: Safety pharmacology studies. The class given is in vivo. As to conditions: oral doses up to 3000 mg/kg.
In another data set the test system is pylorus-ligated rats. The data set is described as follows: Gastric fluid levels in pylorus-ligated rats. As to conditions: 3000 mg/kg oral dose. Type of data set: in vivo.
The nature of data set [6]: Absorption, distribution and metabolites after oral 14C-EPA-E in rats. Type of data set: in vivo. As for the experimental part:
(§1) After administration of ^14C-EPA-E into the ligated intestine of rats, the residual radioactivity in the intestine at 24 hours was only 4.6% of the administered dose. Radioactivity transferred to the plasma and lymph was mainly detected in the triglyceride (TG) fraction in the early phase after dosing, while distribution to the free fatty acid (FFA) fraction was slight at all timepoints. […] Orally administered EPA-E was primarily incorporated in adrenal gland lipids as cholesterol esters of the fatty acids eicosapentaenoic acid (EPA), docosapentaenoic acid (DPA) and docosahexaenoic acid (DHA).
After oral administration of ^14C-EPA-E to the rat, EPA, DPA and DHA were detected as metabolites in the total lipid fraction of the plasma and tissues (liver, fat, heart and brain). […] In the total lipid fraction of the liver, the radioactivity originated mainly from EPA, DPA and DHA. Thus, it is considered that EPA, DPA and DHA are the predominant metabolites of ^14C-EPA-E in tissues, as constituent fatty acids of the total lipid fraction.

A short description of data set [7]: Excretion of radioactivity after single oral administration (rat). Type of data set: in vivo, rats. As for the experimental part: EPADEL is a product containing ethyl all-cis-5,8,11,14,17-eicosapentaenoate (EPA-E), one of the n−3 essential fatty acids. The preclinical absorption, distribution, metabolism and excretion (ADME) characteristics of EPA-E have been determined primarily in rats.
(§2) Consequently, when EPA-E is administered orally to humans, it would appear that it is well absorbed, even though the unchanged ethyl ester form is not detected, and the free form (EPA) is only detected at a very low level, in the blood. Due to this absorption mechanism of essential fatty acids, the administered EPA-E exists as a blood-constituent fatty acid in the total lipids. In fact, according to the approval package document of Lovaza®, the free form of EPA is undetectable in the circulation (<1 μM) following an oral dose of 4 g of Omacor® (a mixture of the ethyl esters of EPA and DHA) Following oral administration of EPA-E, EPA, DPA and DHA were isolated and identified as metabolites in tissues and plasma. EPA, DPA and DHA were incorporated into TG and PL. Radioactivity was primarily excreted in expired air (44%) after single oral administration at 30 mg/kg EPA-E with minimal excretion in bile and urine (˜3%) and approximately 20% excreted in feces.
Renal excretion was the elimination route for several minor highly polar metabolites (<0.4%), but EPA-E, EPA, DPA or DHA were not detected in the urine. In feces, EPA-E and EPA, evidently derived from the unabsorbed drug, were detected; however, no DPA or DHA was detected in the feces.

On the set-up of data set [8]: species or system dogs. As to conditions: dog, in vivo, po, 30 mg/kg, 1 week. As for the experimental part: as §2
The test system of another data set is NASH. The data set is described as follows: Phase II double blind, placebo-controlled clinical trial of EPA-E in subjects with NASH. Type of data set: in vivo, human. An excerpt: This example provides the protocol used for an ongoing phase II clinical trial, double blind, placebo-controlled study to investigate the safety, efficacy, and pharmacokinetic profile of two doses of EPA-E in subjects with NASH. Up to 70 subjects were enrolled into each treatment arm, for a total of 210 subjects to be enrolled. Block randomization using an interactive voice response system (IVRS) was used to assign patients in a 1:1:1 ratio to two active doses and placebo. Patients were stratified at randomization by presence or absence of diabetes. Patients with diabetes comprised no more than 25% of the total number of patients enrolled. […] Subjects were required to have a liver biopsy with proven NASH in the 6 month period prior to screening. The Pharmacokinetic profile for EPA-E was evaluated in a subgroup of subjects in specified sites. Subjects were approached prior to providing informed consent to determine if they will participate in the PK group subset. Approximately 36 subjects participated in the PK subset evaluation (12 from each treatment arm, to include 6 males and 6 females). Overall study duration plan was 2 years. In order to support the trial, EPA-E capsules and matching placebo capsules were prepared. EPA-E capsule is an oval soft gelatin capsule containing 300 mg of EPA-E as an active ingredient. […] These capsules are unidentifiable as EPA-E capsules or placebo capsules. Subjects were administered orally 3 capsules 3 times daily, immediately after meals. Subjects were potentially included into the study if they met all the following criteria: • 1. Diagnosis of definite NASH by the central reading pathologists: • Liver biopsy slides will be submitted for evaluation by the central pathologists according to one of the following criteria: • a. Previous liver biopsies must have been obtained within 6 months prior to informed consent and should be judged by the local pathologist as showing NAS ≥4 with a minimum score of 1 each for steatosis and lobular inflammation plus […] ballooning OR at least 1a sinusoidal fibrosis AND a finding of possible or definite steatohepatitis • b. For liver biopsies performed after informed consent is obtained, all slides will be submitted for reading by the central pathologists in conformity with the independent pathology review charter (IPRC) • 2. Patients of either gender greater than 18 years of age • 3. Patients with diabetes that have been on stable doses of anti-diabetic agents since at least 6 months prior to liver biopsy may be enrolled • 4. Females must be of non-child bearing potential (surgically sterilized or at least two years post-menopausal) or if of child-bearing potential, must have a negative pregnancy test at screening and agree to use an effective form of contraception during the study and for at least 30 days following the last dose of study medication • 5. Normal ECG or clinically non-significant findings at the Screening and Baseline visits • 6. No significant concomitant medical illness, without any clinically significant physical exam findings and without any clinically significant laboratory findings, as determined by the principal investigator • 7. […] Inability or unwillingness to have a liver biopsy • 2. Diagnosis of cirrhosis by central pathology reviewers • 3. Previous bariatric surgery or biliary diversion (i.e. gastric bypass), esophageal banding and gastric banding • 4. Serum ALT>300 U/L • 5. Subject has used drugs associated with steatohepatitis within 6 months prior to screening (corticosteroids, high dose estrogens, methotrexate, amiodarone, anti-HIV drugs, tamoxifen, diltiazem) • 6. Use of the following anti-NASH agents for more than a 2 week period in the 3 months prior to liver biopsy or the 3 months prior to screening: • a. Vitamin E>60 IU per day • b. Omega-3-acid ethyl esters or omega-3-PUFA-containing supplements >200 mg per day • c. Thiazoledinediones (e.g. pioglitazone) • 7. […]

The test system of a further data set is ligated intestine. The data set is described as follows: Administration of 14C-EPA-E into the ligated intestine of rats. The class given is in vivo. As to conditions: at 24 hours. As for the experimental part:
as §1

The nature of data set [9]: Hydrolysis in rat small intestine homogenates, lymph, plasma and liver homogenates. Type of data set: in vitro ADME.
[10] abbreviates: single oral administration at 30 mg/kg.

With `CC/C=C\C/C=C\C/C=C\C/C=C\C/C=C\CCCC(=O)O` [EPA, Eicosapentaenoic acid], in the data set with CYP450, the CYP450 inhibition result was “unlikely to inhibit CYP450”.
Consider `CC/C=C\C/C=C\C/C=C\C/C=C\C/C=C\CCCC(=O)OCC` [EPA-E, ethyl all-cis-5,8,11,14,17-eicosapentaenoate], for which the lipids result in [1] is on record as “lower lipids”. Further, the elasticity of arteries result in the data set with arteries is reported as “preserve the elasticity of arteries”. Also, in data set [2], the fat accumulation entry is recorded as “suppressed fat accumulation”, the “hepatic SREBP-1c levels” value is “suppressing hepatic SREBP-1c levels” and the “monounsaturated fatty acid (MUFA) synthesis by SCD1” value was “suppressing”. In data set [3], the progression of steatohepatitis result is reported as “retarded progression of steatohepatitis” and the “triglyceride (TG) accumulation” value is “suppressing triglyceride (TG) accumulation”. Also, in data set [4], the fibrosis result is on record as “inhibited fibrosis”; the “inflammation and oxidative stress” value was “suppressing inflammation and oxidative stress”. Also, the “effect on the central nervous, autonomic nervous, respiratory and cardiovascular systems” value in data set [5] is “no effect”. Also, the gastric fluid levels entry with pylorus-ligated rats was “reduction in gastric fluid levels”. In [6] (single oral dose 30-1000 mg/kg, rats), the absorption result was “well-absorbed”. Moreover, in data set [7] (rat, in vivo, po, 30 mg/kg), the “radioactivity excreted in expired air” value was determined as 44%. In addition, in data set [7] (setting [10]), the “radioactivity excreted in bile and urine” value was ~3%; the “radioactivity excreted in feces” value is reported as “approximately 20%”. The “EPA-E in the urine” value in data set [7] (urine) is “not detected”. In [8], the “radioactivity excreted in the urine” value was 1.0% and the “radioactivity recovered in the feces” value is 19.2%. In addition, in the data set with NASH (fasting glucose =<125 mg/dL and HbA1c =<6.4, Study arm 1, FIG. 4), the response rate result was “higher response to rate”. Further, the “efficacy (responders)” value in the data set on NASH (fasting glucose =<125 mg/dL and HbA1c =<6.4, Study arm 2) is “equivalent to that of Study arm 1”. Also, in the data set on NASH (patients with GGT levels =<33 IU/L, Study arm 1 and 2, FIG. 9, preliminary), the “NASH response (change of NAS score)” value is reported as “higher efficacy”. In the data set with NASH (patients with GGT levels =<60 IU/L, Study arm 1 and 2, FIG. 8, preliminary), the “efficacy (preliminary endpoint achievement rate v. GGT)” value is listed as “higher efficacy”. Also, in the data set with NASH (patients with GGT ≤33 IU/L, Study arm 2, FIG. 10, preliminary), the “improvement of serum EPA/AA ratio on Day 365” value is given as “higher efficacy”. Further, the “serum EPA/AA ratio over time” value with NASH (patients with GGT ≤33 IU/L, Study arm 2, FIG. 12) was “significant increase”. In the data set on NASH (patients with HbA1c levels =<6.4, Study arm 1, FIG. 2, preliminary), the “efficacy (responders)” value is “higher efficacy”. Besides, in the data set with NASH (patients with HbA1c levels =<6.4, Study arm 2, preliminary), the “efficacy (responders)” value is “equivalent to that of Study arm 1”. Also, in the data set on NASH (patients with fasting glucose =<125 mg/dL, Study arm 1, FIG. 3, preliminary), the “efficacy (responders)” value was “higher efficacy”. Also, the “efficacy (responders)” value in the data set with NASH (patients with fasting glucose =<125 mg/dL, Study arm 2, preliminary) is given as “equivalent to that of Study arm 1”. Besides, the “efficacy (responders)” value in the data set with NASH (patients without biliary tract disease markers (GGT ≤33 IU/L), Study arm 1 (600 mg TID) and Study arm 2 (900 mg TID), FIG. 7, preliminary) was “higher efficacy”. The “efficacy (responders: NAS Score ≤3 or improvement of ≥2 across at least 2 of NAS components)” value with NASH (patients without diabetes or with mild diabetes compared to diabetic patients, Study arm 1 (600 mg EPA-E, TID), FIG. 1, preliminary) is “higher efficacy”. The “efficacy (responders: NAS Score ≤3 or improvement of ≥2 across at least 2 of NAS components)” value in the data set with NASH (patients without diabetes or with mild diabetes, Study arm 2 (900 mg EPA-E, TID), preliminary) was “equivalent to that of Study arm 1”.
For the compound `CC/C=C\C/C=C\C/C=C\C/C=C\C/C=C\CCCC(=O)OCC` [^14C-EPA-E], the “unchanged EPA-E in the plasma or tissues” value in data set [6] (rat, oral administration, plasma, liver, fat, heart and brain) is “no unchanged EPA-E was found”. Besides, the “distribution of radioactivity in body tissues” value in data set [6] (rats, oral 14C-EPA-E) is given as “widely distributed in the body tissues”. Also, the “residual radioactivity in the intestine” value in the data set with ligated intestine is reported as 4.6 % of the administered dose. Moreover, in [9], the hydrolysis result is “hydrolyzed rapidly”.
